Test results taken from publication PMC3466212, “Novel AChE Inhibitors for Sustainable Insecticide Resistance Management” (PLoS ONE, 2012).
Read-outs that look alike come from different tables or passages of the source.

How the values were obtained:
G119S AChE1 = target: T1, G119S AChE1 (Culex pipiens, UniProt Q86GC8, G247S); assay: biochemical; assay type: biochemical
T1 construct: made in house; host or cells: Drosophila S2 cells
Protocol: Production of C. pipiens WT and mutated AChE1s in Drosophila S2 cells was already described. The chemical library (ChemBridge, 3,000 compounds) screening was performed in duplicate on G119S recombinant AChE1. Chemicals were made soluble in ethanol or dimethylsulphoxide (DMSO), and then diluted at 300 µM in ethanol for storage. […] PTF analogs were analyzed in dose-response experiments (10-fold serial dilutions from 3 mM to 30 nM), using recombinant WT and G119S AChE1 or mosquito head extracts (heads cut from frozen mosquitoes, homogenized in 400 µl PB containing 1% Triton X-100 and cleared by centrifugation at 9,000×g for 3 min). Depending on compound availability, two to five replicates were performed with distinct batches of enzyme. […] IC50 was estimated by nonlinear least square regression. IC50 was also measured on AChE1 from susceptible and resistant mosquito larvae extracts.

[1] = tested on: C. pipiens Slab strain larvae; assay: Larval bioassay, Slab strain (OP-susceptible); details: for Mortality at 300 µM, Slab: fourth-instar larvae, 24 hours exposure; for mortality at 300 µM: Culex pipiens, 24 h, read-out: Mortality at 300 µM, Slab
Excerpt: Three C. pipiens strains were used: the susceptible reference Slab strain, homozygous for ace-1 ^S [39], the resistant reference SR strain, carrying the genetical background of Slab but homozygous for the G119S mutation, allele ace-1 ^R [21] and the Ducos strain, carrying the genetical background of Slab but homozygous for an ace-1 duplication, with one ace-1^S and ace-1^R copy in tandem. Culex pipiens heterozygous larvae (Slab×SR) were obtained by crossing Slab males and SR females. Two A. gambiae reference strains (S molecular form) were used: the susceptible strain Kisumu, homozygous for ace-1 ^S, collected in Kenya in 1953 and maintained since then under laboratory conditions and the resistant Acerkis strain, carrying the genetical background of Kisumu but homozygous for an ace-1^R allele from a population collected in Bobo-Dioulasso, Burkina Faso [41].
Insecticidal activity was determined by performing bioassays on fourth-instar larvae as described in [42]. Each compound was dissolved in ethanol. Propoxur (CX) and chlorpyrifos (OP) were used as references. For each compound, we first tested mortality after a 24-hour exposure at 300 µM. […] Mortality data were analyzed by the log-probit program. This program takes into account natural mortality and provides lethal doses (LD) and slopes for each mortality line; it also computes resistance ratios (RR) for each LD, with 95% confidence intervals.

[2] = tested on: C. pipiens SR strain larvae; assay: Larval bioassay, SR strain (OP-resistant); details: for Mortality at 300 µM, SR: fourth-instar larvae, 24 hours exposure; for mortality at 300 µM: Culex pipiens, 24 h, read-out: Mortality at 300 µM, SR
Excerpt: Three C. pipiens strains were used: the susceptible reference Slab strain, homozygous for ace-1 ^S [39], the resistant reference SR strain, carrying the genetical background of Slab but homozygous for the G119S mutation, allele ace-1 ^R [21] and the Ducos strain, carrying the genetical background of Slab but homozygous for an ace-1 duplication, with one ace-1^S and ace-1^R copy in tandem. Culex pipiens heterozygous larvae (Slab×SR) were obtained by crossing Slab males and SR females.
Insecticidal activity was determined by performing bioassays on fourth-instar larvae as described in [42]. Each compound was dissolved in ethanol. Propoxur (CX) and chlorpyrifos (OP) were used as references. For each compound, we first tested mortality after a 24-hour exposure at 300 µM. […] Mortality data were analyzed by the log-probit program.

WT AChE1 = WT AChE1 (Culex pipiens, UniProt Q86GC8); assay: AChE assay (Ellman), dose-response on recombinant WT AChE1; assay type: biochemical; design: made in house; host or cells: Drosophila S2 cells
Protocol: Production of C. pipiens WT and mutated AChE1s in Drosophila S2 cells was already described. The chemical library (ChemBridge, 3,000 compounds) screening was performed in duplicate on G119S recombinant AChE1. Chemicals were made soluble in ethanol or dimethylsulphoxide (DMSO), and then diluted at 300 µM in ethanol for storage. Compounds (30 µM final concentration) were incubated for 15 min at room temperature with 100 µl of G119S recombinant AChE1 then 100 µl of substrate (acetylthiocholine, 1.6 mM, Sigma-Aldrich) was added and the residual activity was quantified by measuring the optical density at 412 nm, as described by Ellman et al.. PTF analogs were analyzed in dose-response experiments (10-fold serial dilutions from 3 mM to 30 nM), using recombinant WT and G119S AChE1 or mosquito head extracts (heads cut from frozen mosquitoes, homogenized in 400 µl PB containing 1% Triton X-100 and cleared by centrifugation at 9,000×g for 3 min). Depending on compound availability, two to five replicates were performed with distinct batches of enzyme. […] IC50 was estimated by nonlinear least square regression. IC50 was also measured on AChE1 from susceptible and resistant mosquito larvae extracts.

[3] = recombinant OP-insensitive G119S C. pipiens AChE1, 15 min incubation, acetylthiocholine, read-out: IC50 G119S
[4] = recombinant wild-type C. pipiens AChE1, 15 min incubation, acetylthiocholine, read-out: IC50 WT

SMILES | IC50 (G119S AChE1; [3]) [µM] | Mortality at 300 µM, Slab [1] [%] | Mortality at 300 µM, SR [2] [%] | IC50 (WT AChE1; [4]) [µM] | IC50 (G119S AChE1) [µM] | mortality at 300 µM [1] [%] | mortality at 300 µM [2] [%] | IC50 (WT AChE1) [µM]
CN1C(=O)C(=Cc2ccc(-c3ccccc3C(=O)O)o2)C(=O)N(C)C1=O [PTF-43] | 8.3 | 0 | 0 | 6.7 | – | – | – | –
Cc1ccc(C=C2C(=O)NC(=O)N(c3cccc(Cl)c3Cl)C2=O)o1 [PTF-21] | 4.8 | 0 | 0 | 5 | – | – | – | –
CN1C(=O)C(=Cc2ccc(-c3ccc4c(c3)COC4=O)o2)C(=O)N(C)C1=O [PTF-53] | 5.6 | 0 | 0 | 0.6 | – | – | – | –
Cc1ccc(C=C2C(=O)NC(=O)N(c3ccccc3)C2=O)s1 [PTF-68] | 5 | 89 | 95 | 4 | – | – | – | –
CCOP(=O)(OCC)Oc1nc(Cl)c(Cl)cc1Cl [Chlorpyrifos-oxon, reference compound] | – | 100 | 100 | – | – | – | – | –
Cc1ccc(C=C2C(=O)NC(=O)N(c3ccccc3F)C2=O)o1 [PTF-18] | 1.8 | 0 | 0 | 5.3 | – | – | – | –
COc1ccc(N2C(=O)C(=Cc3ccc(C)o3)C(=O)NC2=S)cc1 [PTF-27] | 5.9 | 12 | 15 | 1.7 | – | – | – | –
O=C1NC(=O)N(c2ccccc2)C(=O)C1=Cc1ccc(-c2cccc(C(=O)O)c2)o1 [PTF-58] | 9.3 | 0 | 0 | 6.7 | – | – | – | –
O=C1NC(=O)N(c2ccccc2)C(=O)C1=Cc1ccc(N2CCOCC2)s1 [PTF-71] | 2480 | 0 | 0 | 4500 | – | – | – | –
N=C1NC(=O)C(=Cc2ccco2)C(=O)N1c1ccccc1 [PTF-64] | 49.5 | 0 | 0 | 56 | – | – | – | –
Cc1ccc(C=C2C(=O)NC(=O)N(C3CCCCC3)C2=O)o1 [PTF-2] | 5.5 | 12 | 53 | 12.6 | – | – | – | –
COP(=O)(OC)OC=C(Cl)Cl [Dichlorvos, reference compound] | – | – | – | – | 2 | 100 | 100 | 0.45
CCOc1ccc(N2C(=O)NC(=O)C(=Cc3ccc(C)o3)C2=O)cc1 [PTF-13] | 89 | 64 | 96 | 236 | – | – | – | –
CN1C(=O)C(=Cc2ccc(N(C)C)o2)C(=O)N(C)C1=O [PTF-41] | 132 | 20 | 20 | 175 | – | – | – | –
CN1C(=O)C(=Cc2ccc(N3CCCC3)o2)C(=O)N(C)C1=O [PTF-48] | 1520 | 0 | 0 | 755 | – | – | – | –
CN1CCN(c2ccc(C=C3C(=O)N(C)C(=O)N(C)C3=O)o2)CC1 [PTF-52] | 52 | 0 | 0 | 860 | – | – | – | –
CCc1ccc(N2C(=O)NC(=O)C(=Cc3ccc(C)o3)C2=O)cc1 [PTF-8] | 19 | 60 | 100 | 312 | – | – | – | –
Cc1ccc(C=C2C(=O)NC(=O)N(c3ccc(C)c(C)c3)C2=O)o1 [PTF-7] | 35 | 100 | 100 | 424 | – | – | – | –

SMILES | IC50 (G119S AChE1; [3]) [µM] | Mortality at 300 µM, Slab [1] [%] | Mortality at 300 µM, SR [2] [%] | IC50 (WT AChE1; [4]) [µM] | IC50 (G119S AChE1) [µM] | mortality at 300 µM [1] [%] | mortality at 300 µM [2] [%] | IC50 (WT AChE1) [µM]
C=CCN1C(=O)NC(=O)C(=Cc2ccc(C)s2)C1=O [PTF-66] | 51 | 63 | 100 | 91.6 | – | – | – | –
CC(=O)c1ccc(-c2ccc(C=C3C(=O)N(C)C(=O)N(C)C3=O)o2)cc1 [PTF-45] | 1.1 | 0 | 0 | 3.4 | – | – | – | –
Cc1ccc(C=C2C(=O)NC(=O)N(c3cccc(Br)c3)C2=O)o1 [PTF-22] | 1.9 | 68 | 97 | 1.5 | – | – | – | –
C=CCN1C(=O)NC(=O)C(=Cc2ccc(C)o2)C1=O [PTF-1] | 2.2 | 0 | 0 | 3 | – | – | – | –
CN1C(=O)C(=Cc2ccc(-c3cccc(C(=O)O)c3)o2)C(=O)N(C)C1=O [PTF-44] | 0.6 | 0 | 0 | 0.6 | – | – | – | –
CN1C(=O)C(=Cc2ccc(-c3ccc(S(N)(=O)=O)cc3)o2)C(=O)N(C)C1=O [PTF-46] | 5.2 | 0 | 0 | 1.7 | – | – | – | –
Cc1ccc(C=C2C(=O)NC(=S)N(c3ccc(F)cc3)C2=O)o1 [PTF-33] | 22 | 16 | 77 | 490 | – | – | – | –
Cc1ccc(C=C2C(=O)NC(=O)N(CCc3ccc(F)cc3)C2=O)o1 [PTF-19] | 3.7 | 0 | 0 | 3.3 | – | – | – | –
Cc1ccc(C=C2C(=O)NC(=S)N(c3ccc(Cl)cc3)C2=O)o1 [PTF-35] | 8.7 | 5 | 49 | 8.7 | – | – | – | –
Cc1ccc(C=C2C(=O)NC(=S)N(c3cccc(Cl)c3)C2=O)o1 [PTF-36] | 8 | 30 | 40 | 11.8 | – | – | – | –
CCc1ccc(N2C(=O)C(=Cc3ccc(C)o3)C(=O)NC2=S)cc1 [PTF-26] | 16 | 100 | 65 | 9 | – | – | – | –
O=C1NC(=O)N(c2ccccc2)C(=O)C1=Cc1ccc(N2CCCCC2)s1 [PTF-70] | 6.2 | 0 | 0 | 18 | – | – | – | –
Cc1ccc(C=C2C(=O)NC(=O)N(c3ccccc3C)C2=O)o1 [PTF-5] | 1.1 | 0 | 0 | 1.4 | – | – | – | –
CN1C(=O)C(=Cc2ccc(N3CCOCC3)o2)C(=O)N(C)C1=O [PTF-50] | 145 | 0 | 0 | 260 | – | – | – | –
Cc1ccc(C=C2C(=O)NC(=O)N(c3ccc(C(C)C)cc3)C2=O)o1 [PTF-9] | 21.5 | 19 | 39 | 132 | – | – | – | –
Nc1c2c(nc3ccccc13)CCCC2 [Tacrine, reference compound] | – | – | – | – | – | 85 | 95 | –
CCOP(=O)(OCC)Oc1ccc([N+](=O)[O-])cc1 [Paraoxon, reference compound] | – | 100 | 100 | – | – | – | – | –
